Literature values in patent US6627614B1, “Sequential therapy comprising a 20(S)-camptothecin and an anthracycline” (priority 2002, dated 2003).
Values belong to the compound of their own block, whether it stands above or below them.

What was measured:
[1] = tested on: human colon cancer xenografts
[2] = tested on: various types of cancer, including primary cancer and metastasis; settings: patients, oral
[3] = administered intravenously, patients
[4] = tested on: nontumorigenic and tumorigenic human cells
[5] = not given; remark: listed apart in the source

SMILES: CC[C@@]1(O)C(=O)OCc2c1cc1n(c2=O)Cc2cc3c(N)cccc3nc2-1 [9AC, 9-Amino-20(S)-Camptothecin]
anticancer activity against human colon cancer xenografts [1]: high anticancer activity

SMILES: CC[C@@]1(O)C(=O)OCc2c1cc1n(c2=O)Cc2cc3c([N+](=O)[O-])cccc3nc2-1 [9NC, 9-nitrocamptothecin]
tumors known to regress after exposure [2]: breast carcinoma, ovarian carcinoma, cholangiocarcinoma, monomyelocytic leukemia, and pancreatic carcinoma
activity against human tumor xenograft models (human tumor xenografts; human tumor xenograft models): high activity
growth of human tumor xenografts (human tumor xenografts; immunodeficient nude mice): inhibited the growth
regression of established human tumors (human tumor xenografts; tumors established as xenografts in nude mice): induced regression

SMILES: CC[C@@]1(O)C(=O)OCc2c1cc1n(c2=O)Cc2cc3cc4c(cc3nc2-1)OCO4 [10,11 MD, 10,11-Methylendioxy-20(S)-Camptothecin]
anticancer activity against human colon cancer xenografts [1]: high anticancer activity

SMILES: CC[C@@](O)(C(=O)[O-])c1cc2n(c(=O)c1CO)Cc1cc3ccccc3nc1-2.[Na+] [20(S)-camptothecin Na^+, sodium salt of 20(S)-camptothecin]
potency in clinical trials [3]: low potency
toxicity in clinical trials [3]: high toxicity

SMILES: CC[C@@]1(O)C(=O)OCc2c1cc1n(c2=O)Cc2cc3ccccc3nc2-1 [20(S)-camptothecin]
effect on nontumorigenic cells ([4]; nontumorigenic human cells in vitro): cytostatic
effect on tumorigenic cells ([4]; tumorigenic human cells in vitro): cytotoxic

crossing of the blood brain barrier (human, in vivo): does not cross
clearance in patients with impaired hepatic function: reduced
dose appearing in the bile (in 5 days): Approximately 40%
initial distributive half-life (patients, intravenous injection): approximately 5.0 minutes
children with subclinical cardiac dysfunction ([5]; children, long term follow-up): ≤ 40%
SMILES: COc1cccc2c1C(=O)c1c(O)c3c(c(O)c1C2=O)C[C@@](O)(C(=O)CO)C[C@@H]3OC1CC(N)C(O)C(C)O1 (stereo partly shown) [doxorubicin]
systemic clearance in obese women (obese women with ideal body weight greater than 130%): significantly reduced
additional toxicity manifested by ([5]; patients): neutropenia, thrombocytopenia, anemia, confusion and hematuria
total cumulative dose at which irreversible cardiac toxicity may occur ([5]; patients): ~550 mg/M^2

SMILES: COc1cccc2c1C(=O)c1c(O)c3c(c(O)c1C2=O)C[C@@](O)([C@@H](O)CO)C[C@@H]3O[C@H]1C[C@H](N)[C@H](O)[C@H](C)O1 [doxorubicinol]
clearance in patients with impaired hepatic function: reduced
